The values that follow come from ChEMBL document CHEMBL3991601, “The target landscape of clinical kinase drugs” (Science, 2017).

The source made the active and inactive calls.

The target in test [1] is Mitogen-activated protein kinase 14 (Homo sapiens, UniProt Q16539).
Test [2] has as its target Myosin-10 (Homo sapiens, UniProt P35580).
Test [3] addresses Guanine nucleotide-binding protein G(i) subunit alpha-2 (Homo sapiens, UniProt P04899).
Test [4] addresses Serine/threonine-protein kinase N3 (Homo sapiens, UniProt Q6P5Z2).
Test [5] has as its target T1, ATP-dependent RNA helicase DHX30 (Homo sapiens, UniProt Q7L2E3).
T1 sequence (Q7L2E3 whole entry): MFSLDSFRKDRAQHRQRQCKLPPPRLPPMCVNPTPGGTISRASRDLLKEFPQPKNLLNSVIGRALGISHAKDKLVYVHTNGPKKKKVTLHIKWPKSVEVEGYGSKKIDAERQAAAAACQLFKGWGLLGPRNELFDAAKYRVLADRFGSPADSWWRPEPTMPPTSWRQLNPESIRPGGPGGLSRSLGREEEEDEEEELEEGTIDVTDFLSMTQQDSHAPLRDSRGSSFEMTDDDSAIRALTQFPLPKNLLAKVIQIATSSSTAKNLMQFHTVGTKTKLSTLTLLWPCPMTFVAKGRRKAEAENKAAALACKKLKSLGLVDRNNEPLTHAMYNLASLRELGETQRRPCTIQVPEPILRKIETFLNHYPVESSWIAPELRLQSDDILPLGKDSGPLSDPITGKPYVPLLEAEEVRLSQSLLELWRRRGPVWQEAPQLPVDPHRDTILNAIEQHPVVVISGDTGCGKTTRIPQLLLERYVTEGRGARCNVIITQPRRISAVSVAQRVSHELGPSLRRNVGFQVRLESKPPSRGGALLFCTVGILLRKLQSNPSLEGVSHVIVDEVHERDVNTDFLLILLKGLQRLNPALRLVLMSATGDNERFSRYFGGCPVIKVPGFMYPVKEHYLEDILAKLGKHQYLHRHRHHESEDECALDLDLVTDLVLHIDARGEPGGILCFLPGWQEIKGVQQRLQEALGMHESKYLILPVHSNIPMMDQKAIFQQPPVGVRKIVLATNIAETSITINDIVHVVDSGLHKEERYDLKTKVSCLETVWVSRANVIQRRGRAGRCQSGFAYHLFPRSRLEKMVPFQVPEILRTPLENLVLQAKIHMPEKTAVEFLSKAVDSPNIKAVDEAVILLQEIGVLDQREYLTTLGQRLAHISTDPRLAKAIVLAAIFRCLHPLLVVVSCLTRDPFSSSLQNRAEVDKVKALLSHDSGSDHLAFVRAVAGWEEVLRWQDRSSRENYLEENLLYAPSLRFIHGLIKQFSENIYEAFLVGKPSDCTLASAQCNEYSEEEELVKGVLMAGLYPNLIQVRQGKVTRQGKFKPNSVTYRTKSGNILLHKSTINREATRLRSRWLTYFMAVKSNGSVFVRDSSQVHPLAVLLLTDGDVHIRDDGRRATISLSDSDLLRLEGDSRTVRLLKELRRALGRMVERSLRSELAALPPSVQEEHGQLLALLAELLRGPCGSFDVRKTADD

Test [6] has as its target Tyrosine-protein kinase Fgr (Homo sapiens, UniProt P09769).
For test [7], the target named is T2, UMP-CMP kinase (Homo sapiens, UniProt P30085).
T2 sequence (P30085 whole entry): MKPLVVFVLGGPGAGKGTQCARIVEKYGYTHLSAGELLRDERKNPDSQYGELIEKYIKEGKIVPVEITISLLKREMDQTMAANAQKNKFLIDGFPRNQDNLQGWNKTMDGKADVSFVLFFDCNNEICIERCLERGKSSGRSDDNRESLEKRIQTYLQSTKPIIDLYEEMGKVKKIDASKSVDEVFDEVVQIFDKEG

In test [8] the target is MAP kinase-activated protein kinase 3 (Homo sapiens, UniProt Q16644).
Test [9] has as its target T3, Dual specificity mitogen-activated protein kinase kinase 4 (Homo sapiens, UniProt P45985).
T3 sequence (P45985 whole entry): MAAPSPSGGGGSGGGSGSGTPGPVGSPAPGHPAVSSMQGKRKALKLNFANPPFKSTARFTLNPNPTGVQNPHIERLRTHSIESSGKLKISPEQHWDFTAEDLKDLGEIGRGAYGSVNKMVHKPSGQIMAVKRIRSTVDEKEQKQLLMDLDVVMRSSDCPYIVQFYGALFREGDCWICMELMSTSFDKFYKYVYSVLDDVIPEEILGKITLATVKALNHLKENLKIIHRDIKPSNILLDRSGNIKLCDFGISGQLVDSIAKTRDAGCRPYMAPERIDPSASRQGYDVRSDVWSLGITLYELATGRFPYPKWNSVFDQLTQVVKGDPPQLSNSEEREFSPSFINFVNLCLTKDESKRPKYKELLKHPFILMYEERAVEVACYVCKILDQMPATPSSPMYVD
Also: in the data inactive means no Kd found up to 30 µM.

Chain of Serine/threonine-protein kinase N3 (Q6P5Z2 whole entry): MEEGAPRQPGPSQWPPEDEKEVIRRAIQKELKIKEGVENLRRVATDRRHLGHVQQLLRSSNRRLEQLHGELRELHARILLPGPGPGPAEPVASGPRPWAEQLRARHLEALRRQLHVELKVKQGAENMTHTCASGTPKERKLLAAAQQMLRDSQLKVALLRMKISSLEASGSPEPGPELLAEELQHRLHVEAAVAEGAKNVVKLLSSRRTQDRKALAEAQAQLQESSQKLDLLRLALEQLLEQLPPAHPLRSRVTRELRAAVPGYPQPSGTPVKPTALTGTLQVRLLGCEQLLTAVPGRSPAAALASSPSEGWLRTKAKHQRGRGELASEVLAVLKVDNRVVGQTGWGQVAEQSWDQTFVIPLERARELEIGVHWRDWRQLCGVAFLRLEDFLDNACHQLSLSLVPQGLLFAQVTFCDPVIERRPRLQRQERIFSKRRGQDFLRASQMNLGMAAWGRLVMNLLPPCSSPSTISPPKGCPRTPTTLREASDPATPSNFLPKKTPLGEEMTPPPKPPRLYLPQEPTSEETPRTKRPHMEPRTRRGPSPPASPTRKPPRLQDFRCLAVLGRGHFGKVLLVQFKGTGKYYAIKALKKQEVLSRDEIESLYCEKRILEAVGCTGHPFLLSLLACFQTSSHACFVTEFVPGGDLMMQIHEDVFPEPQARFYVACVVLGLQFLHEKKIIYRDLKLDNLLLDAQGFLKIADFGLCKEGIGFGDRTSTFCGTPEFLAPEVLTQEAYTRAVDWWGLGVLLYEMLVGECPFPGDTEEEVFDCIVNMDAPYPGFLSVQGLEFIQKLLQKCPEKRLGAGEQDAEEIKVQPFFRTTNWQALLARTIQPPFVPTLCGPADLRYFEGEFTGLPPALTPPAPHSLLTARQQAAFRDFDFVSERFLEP
Chain of MAP kinase-activated protein kinase 3 (Q16644 whole entry): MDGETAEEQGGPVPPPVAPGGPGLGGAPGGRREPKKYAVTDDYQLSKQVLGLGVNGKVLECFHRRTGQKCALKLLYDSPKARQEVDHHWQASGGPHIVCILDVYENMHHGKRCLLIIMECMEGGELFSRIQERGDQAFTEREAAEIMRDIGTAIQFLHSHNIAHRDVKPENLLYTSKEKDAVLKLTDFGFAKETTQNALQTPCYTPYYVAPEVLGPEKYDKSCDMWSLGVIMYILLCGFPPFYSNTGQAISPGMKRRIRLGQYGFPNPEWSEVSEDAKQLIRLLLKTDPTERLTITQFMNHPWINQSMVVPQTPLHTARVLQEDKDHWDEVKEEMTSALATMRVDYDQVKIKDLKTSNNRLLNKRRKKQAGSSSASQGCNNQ
Chain of Tyrosine-protein kinase Fgr (P09769 whole entry): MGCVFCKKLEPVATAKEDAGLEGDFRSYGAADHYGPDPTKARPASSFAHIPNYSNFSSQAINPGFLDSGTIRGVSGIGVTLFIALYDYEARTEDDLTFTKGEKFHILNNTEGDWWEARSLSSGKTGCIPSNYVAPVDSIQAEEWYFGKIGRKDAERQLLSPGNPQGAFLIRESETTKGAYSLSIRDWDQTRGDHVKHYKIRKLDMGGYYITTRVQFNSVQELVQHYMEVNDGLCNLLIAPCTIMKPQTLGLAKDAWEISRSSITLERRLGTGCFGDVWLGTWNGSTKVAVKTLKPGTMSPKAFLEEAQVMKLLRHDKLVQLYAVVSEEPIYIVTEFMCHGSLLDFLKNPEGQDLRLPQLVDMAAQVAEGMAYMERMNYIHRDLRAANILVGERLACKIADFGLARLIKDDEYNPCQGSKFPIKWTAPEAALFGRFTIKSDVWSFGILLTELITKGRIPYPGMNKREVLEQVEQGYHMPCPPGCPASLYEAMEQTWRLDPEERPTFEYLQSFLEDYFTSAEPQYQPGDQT
Chain of Mitogen-activated protein kinase 14 (Q16539 whole entry): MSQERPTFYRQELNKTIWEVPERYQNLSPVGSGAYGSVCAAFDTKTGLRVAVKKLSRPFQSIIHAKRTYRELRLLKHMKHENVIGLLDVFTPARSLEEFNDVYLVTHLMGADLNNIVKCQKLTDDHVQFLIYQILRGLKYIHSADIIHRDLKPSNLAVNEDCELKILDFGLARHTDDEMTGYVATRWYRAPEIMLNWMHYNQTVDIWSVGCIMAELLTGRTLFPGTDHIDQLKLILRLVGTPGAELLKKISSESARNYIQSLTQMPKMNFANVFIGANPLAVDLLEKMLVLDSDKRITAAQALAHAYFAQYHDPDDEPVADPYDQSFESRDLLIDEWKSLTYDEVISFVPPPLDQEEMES
Chain of Myosin-10 (P35580 whole entry): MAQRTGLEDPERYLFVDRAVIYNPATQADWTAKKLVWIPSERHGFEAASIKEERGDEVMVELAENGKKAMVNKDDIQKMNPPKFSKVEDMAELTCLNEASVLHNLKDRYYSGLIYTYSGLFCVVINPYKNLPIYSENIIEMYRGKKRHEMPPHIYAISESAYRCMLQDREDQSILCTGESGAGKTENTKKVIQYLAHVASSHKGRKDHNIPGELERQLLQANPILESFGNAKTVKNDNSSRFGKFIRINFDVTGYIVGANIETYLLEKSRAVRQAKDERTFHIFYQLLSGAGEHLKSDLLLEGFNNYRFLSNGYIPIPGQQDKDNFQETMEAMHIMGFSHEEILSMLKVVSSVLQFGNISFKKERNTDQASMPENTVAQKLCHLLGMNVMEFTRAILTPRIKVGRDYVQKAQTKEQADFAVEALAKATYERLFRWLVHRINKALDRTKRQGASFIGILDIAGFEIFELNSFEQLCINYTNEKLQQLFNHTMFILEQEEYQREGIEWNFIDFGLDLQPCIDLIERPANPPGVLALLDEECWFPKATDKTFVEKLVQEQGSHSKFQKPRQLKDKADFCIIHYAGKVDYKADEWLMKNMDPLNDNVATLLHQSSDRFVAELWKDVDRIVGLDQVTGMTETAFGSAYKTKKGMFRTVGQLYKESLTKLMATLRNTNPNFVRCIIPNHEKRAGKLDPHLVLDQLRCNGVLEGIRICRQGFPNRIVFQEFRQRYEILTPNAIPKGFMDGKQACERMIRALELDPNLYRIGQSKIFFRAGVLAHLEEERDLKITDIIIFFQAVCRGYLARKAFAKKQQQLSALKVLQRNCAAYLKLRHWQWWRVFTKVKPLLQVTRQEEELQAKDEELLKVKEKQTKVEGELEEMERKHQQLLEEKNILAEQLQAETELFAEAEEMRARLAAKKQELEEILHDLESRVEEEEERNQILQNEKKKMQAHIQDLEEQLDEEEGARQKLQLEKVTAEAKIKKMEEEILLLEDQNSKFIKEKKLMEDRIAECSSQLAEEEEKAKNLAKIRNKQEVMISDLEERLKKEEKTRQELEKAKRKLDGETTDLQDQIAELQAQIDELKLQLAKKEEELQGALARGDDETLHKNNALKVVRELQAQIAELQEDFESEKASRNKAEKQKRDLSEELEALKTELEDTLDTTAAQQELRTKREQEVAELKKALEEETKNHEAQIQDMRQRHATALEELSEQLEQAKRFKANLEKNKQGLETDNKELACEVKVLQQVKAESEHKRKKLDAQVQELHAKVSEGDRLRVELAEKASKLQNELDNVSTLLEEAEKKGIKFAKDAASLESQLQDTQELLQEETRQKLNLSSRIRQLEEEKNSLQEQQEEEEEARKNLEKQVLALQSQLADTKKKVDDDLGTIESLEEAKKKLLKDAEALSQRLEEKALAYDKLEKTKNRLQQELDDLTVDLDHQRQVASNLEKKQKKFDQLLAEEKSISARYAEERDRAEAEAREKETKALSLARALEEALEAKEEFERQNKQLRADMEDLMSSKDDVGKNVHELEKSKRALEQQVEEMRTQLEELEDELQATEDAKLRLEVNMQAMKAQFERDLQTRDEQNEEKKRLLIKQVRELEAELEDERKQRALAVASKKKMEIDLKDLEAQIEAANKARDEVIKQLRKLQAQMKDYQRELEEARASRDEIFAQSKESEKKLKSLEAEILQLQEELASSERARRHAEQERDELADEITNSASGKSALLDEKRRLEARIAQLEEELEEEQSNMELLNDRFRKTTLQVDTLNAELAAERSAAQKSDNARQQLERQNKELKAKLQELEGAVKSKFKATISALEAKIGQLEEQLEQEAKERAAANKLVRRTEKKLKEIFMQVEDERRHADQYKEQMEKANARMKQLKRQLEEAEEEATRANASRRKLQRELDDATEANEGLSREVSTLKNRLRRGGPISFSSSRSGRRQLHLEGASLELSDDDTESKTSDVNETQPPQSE
Chain of Guanine nucleotide-binding protein G(i) subunit alpha-2 (P04899 whole entry): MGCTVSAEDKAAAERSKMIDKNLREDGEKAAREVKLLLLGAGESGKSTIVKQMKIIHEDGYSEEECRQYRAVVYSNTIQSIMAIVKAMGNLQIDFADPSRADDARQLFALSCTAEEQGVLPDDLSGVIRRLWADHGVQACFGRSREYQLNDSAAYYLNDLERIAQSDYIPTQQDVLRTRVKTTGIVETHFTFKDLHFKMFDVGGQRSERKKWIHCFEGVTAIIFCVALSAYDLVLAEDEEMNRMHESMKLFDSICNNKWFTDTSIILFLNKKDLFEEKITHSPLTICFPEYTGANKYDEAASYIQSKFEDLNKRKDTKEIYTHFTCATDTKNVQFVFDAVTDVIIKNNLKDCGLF

For `CC[C@@H]1C(=O)N(C)c2cnc(Nc3ccc(C(=O)N[C@H]4CC[C@H](N5CCN(CC6CC6)CC5)CC4)cc3OC)nc2N1C(C)C` [VOLASERTIB], the Kd in [1], in [2], in [3], in test [4], in [5] and in test [6] was > 30 µM (inactive) in each case. In addition, the Kd (commonly the free concentration of one partner at which half of the binding sites on the other are occupied at equilibrium, for simple one-to-one binding) in test [7] is > 30 µM (inactive).
Turning to `COc1cc(OC)c(/C=C/S(=O)(=O)Cc2ccc(OC)c(NCC(=O)O)c2)c(OC)c1` [RIGOSERTIB], the Kd in test [1], in test [2], in test [3], in test [4], in [5] and in test [6] was > 30 µM (inactive) in each case.
On to `OCCn1cc(-c2cnc3nnn(Cc4ccc5ncccc5c4)c3n2)cn1` [PF-04217903], for which the Kd in test [8], in test [2], in test [3], in [4], in [5] and in test [6] was > 30 µM (inactive) each time. Moreover, the Kd in test [7] and in test [9] was > 30 µM (inactive) each time.
Regarding `CO[C@H]1C[C@@H]2CC[C@@H](C)[C@@](O)(O2)C(=O)C(=O)N2CCCC[C@H]2C(=O)O[C@H]([C@H](C)C[C@@H]2CC[C@@H](OCCO)[C@H](OC)C2)CC(=O)[C@H](C)/C=C(\C)[C@@H](O)[C@@H](OC)C(=O)[C@H](C)C[C@H](C)/C=C/C=C/C=C/1C` [EVEROLIMUS], the Kd in [1], in [2], in [3], in [4], in test [5] and in [6] was > 30 µM (inactive) in each case. Moreover, in [7], the Kd is > 30 µM (inactive).
Regarding `O=C(Nc1ccc(-c2ccnc(Nc3ccc(N4CCOCC4)cc3)n2)cc1)C1CCCN1` (stereo unspecified) [XL-019], the Kd in test [1], in test [8], in [3], in test [4], in [5] and in [6] was > 30 µM (inactive) each time.
Take `CCS(=O)(=O)N1CC(CC#N)(n2cc(-c3ncnc4[nH]ccc34)cn2)C1` [BARICITINIB]: the Kd in test [1], in [8], in test [2], in test [3], in test [5] and in test [7] was > 30 µM (inactive) in each case.
With `CNS(=O)(=O)Nc1nccc(Cc2c(C)c3ccc(Oc4ncccn4)cc3oc2=O)c1F` [AVUTOMETINIB], the Kd in [1], in [8], in test [2], in test [3], in test [4] and in test [5] was > 30 µM (inactive) each time. The Kd in test [9] is > 30 µM (inactive).
`C[C@@H]1CN(Cc2ccc(F)cc2)[C@@H](C)CN1C(=O)c1cc2c(C(=O)C(=O)N(C)C)cn(C)c2cc1Cl` [TALMAPIMOD]: the Kd in test [8], in test [3], in test [4], in test [5] and in test [7] was > 30 µM (inactive) throughout.
As to `COc1cc2nccc(Oc3ccc(NC(=O)NC4CC4)c(Cl)c3)c2cc1C(N)=O` [LENVATINIB], the equilibrium dissociation constant (Kd) in [1] is 0.217 µM (active); in test [8] it was > 30 µM (inactive); in test [2], > 30 µM (inactive); in test [3], > 30 µM (inactive); in test [4], > 30 µM (inactive); in test [7], > 30 µM (inactive).
In the case of `CNC(=O)c1ccc(C)c(-n2c(C)cc(OCc3ccc(F)cc3F)c(Br)c2=O)c1` [PH-797804], the Kd in test [3], in [4], in [5] and in test [6] was > 30 µM (inactive) each time.
Turning to `Cc1nc(N)sc1-c1ccnc(Nc2ccc(N3CCOCC3)cc2)n1` [CYC-116], the Kd in [1], in [2], in test [4], in [6], in [7] and in [9] was > 30 µM (inactive) throughout.
For the compound `CN1CCC(CNc2ccc3ncc(-c4cccc(OC(F)(F)F)c4)n3n2)CC1` [SGI-1776], the Kd in test [1], in [8], in test [2], in [3], in [4] and in test [7] was > 30 µM (inactive) each time.
Turning to `CNC(=O)c1cc(Oc2ccc(NC(=O)Nc3ccc(Cl)c(C(F)(F)F)c3)c(F)c2)ccn1` [REGORAFENIB], the Kd in test [1] was 0.705 µM (active); in test [2], > 30 µM (inactive); in test [3] it was > 30 µM (inactive); in [4], > 30 µM (inactive); in test [5], > 30 µM (inactive); in [6], > 30 µM (inactive). Moreover, in [7], the Kd was > 30 µM (inactive).
Consider `Cc1ccc(-n2nc(C(C)(C)C)cc2NC(=O)NCc2cc(F)ccc2Oc2ccc3c(cnn3CCO)c2)cc1` [PEXMETINIB], for which the Kd in [8], in [2], in test [3], in test [4], in test [5] and in test [7] was > 30 µM (inactive) each time. For the same compound, the Kd in test [9] is > 30 µM (inactive).
`CCN1CCN(Cc2ccc(-c3cc4c(N[C@H](C)c5ccccc5)ncnc4[nH]3)cc2)CC1` [AEE-788]: the Kd in [1], in [8], in test [3] and in test [5] was > 30 µM (inactive) in each case.
For the compound `COCCNCc1ccc(-c2cc3nccc(Oc4ccc(NC(=S)NC(=O)Cc5ccc(F)cc5)cc4F)c3s2)nc1` [GLESATINIB], the Kd in [1], in test [8], in [2], in test [3], in test [4] and in test [5] was > 30 µM (inactive) in each case. Moreover, the Kd in [7] and in test [9] was > 30 µM (inactive) each time.
On to `Cn1cc(-c2ccc3nnc(C(F)(F)c4ccc5ncccc5c4)n3n2)cn1` [JNJ-38877605], for which the Kd in [1], in test [2], in [3], in test [4], in [5] and in [6] was > 30 µM (inactive) each time.
For `O=C(c1ccc(F)c(F)c1Nc1ccc(I)cc1F)N1CC(O)([C@@H]2CCCCN2)C1` [COBIMETINIB], the Kd in [1], in [8], in test [4], in test [5] and in test [9] was > 30 µM (inactive) each time.
